Data: ChEMBL document CHEMBL1201862, “PubChem BioAssay data set” (2004)
Calls of active or inactive are those of the source.

Key:
[1] = Luminescence Cell-Based Dose Retest to Confirm Inhibitors of Cancer Stem Cells. [Related pubchem assays (depositor defined):AID2717, AID2721]; assay type: functional; settings: Homo sapiens
[2] = HEp-2 cell cytotoxicity, dose response, cytotoxicity control for RSV inhibitor project, HTS (AID 2410); assay type: functional; settings: human respiratory syncytial virus
Nonstructural protein 1 = Nonstructural protein 1 (Influenza A virus, UniProt Q194T2); assay type: functional, Influenza A virus (A/California/07/2009(H1N1))
Nonstructural protein 1, sequence (Q194T2 whole entry): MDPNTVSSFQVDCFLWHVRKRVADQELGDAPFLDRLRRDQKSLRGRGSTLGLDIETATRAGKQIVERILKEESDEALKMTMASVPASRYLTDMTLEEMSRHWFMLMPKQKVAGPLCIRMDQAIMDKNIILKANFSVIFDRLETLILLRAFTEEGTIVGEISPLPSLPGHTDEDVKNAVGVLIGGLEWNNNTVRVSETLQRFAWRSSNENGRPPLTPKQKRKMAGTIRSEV

[3] = inhibitors of PGC1a acetylation in cells, dose response, cell-based, cherry-picked samples (AID 720514); assay type: functional;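 note: potency may reflect raised or lowered acetylation signal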
[4] = growth suppression of PTEN-null colon cells, dose response, cell-based, HCT116 PTEN knockout (AID 1047); assay type: functional;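 note: HCT116 colon tumor cells with PTEN knocked out; cells exposed to compound for 60 hours before readout; potency for loss of cell viability measured by luminescence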
[5] = growth suppression of beta-catenin-knockout colon cells, dose response, cell-based, HCT116, human colon tumor (AID 1045); assay type: functional;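 note: HCT116 colon tumor cells with beta catenin knocked out; cells exposed to compound for 60 hours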
cells [6] = settings: HEK293
cells [7] = assay: cells
cells [8] = settings: A549
[9] = HepG2 cell cytotoxicity, dose response, cytotoxicity control, ATP luminescence, cherry-pick, set 6 (AID 1053125); assay type: functional, cell-based
[10] = target: T1, Oxysterols receptor LXR-beta (Homo sapiens, UniProt P55055); assay type: functional, cell-based;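 note: agonist activity at LXR measured by a cell-based luminescence readout across a dose range, run as a counterscreen for daf-12 agonists; potency for activation of Gal4-LXR reporter so compounds are agonists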
T1 sequence (P55055 whole entry): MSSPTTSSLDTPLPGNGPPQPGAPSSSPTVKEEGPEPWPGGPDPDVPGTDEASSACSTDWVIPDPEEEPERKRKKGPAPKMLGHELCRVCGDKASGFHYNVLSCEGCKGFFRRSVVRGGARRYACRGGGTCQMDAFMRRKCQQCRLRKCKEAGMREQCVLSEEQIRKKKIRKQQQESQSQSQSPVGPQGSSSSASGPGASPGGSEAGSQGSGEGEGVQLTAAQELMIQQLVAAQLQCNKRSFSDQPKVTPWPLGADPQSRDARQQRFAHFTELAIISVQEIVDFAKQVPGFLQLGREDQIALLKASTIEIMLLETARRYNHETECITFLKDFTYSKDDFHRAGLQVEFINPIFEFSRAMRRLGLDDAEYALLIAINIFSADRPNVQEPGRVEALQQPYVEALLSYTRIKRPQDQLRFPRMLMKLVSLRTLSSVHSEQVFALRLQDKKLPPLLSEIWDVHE

Protein skinhead-1 = target: T2, Protein skinhead-1 (Caenorhabditis elegans, UniProt P34707); assay type: functional
T2 sequence (P34707 whole entry): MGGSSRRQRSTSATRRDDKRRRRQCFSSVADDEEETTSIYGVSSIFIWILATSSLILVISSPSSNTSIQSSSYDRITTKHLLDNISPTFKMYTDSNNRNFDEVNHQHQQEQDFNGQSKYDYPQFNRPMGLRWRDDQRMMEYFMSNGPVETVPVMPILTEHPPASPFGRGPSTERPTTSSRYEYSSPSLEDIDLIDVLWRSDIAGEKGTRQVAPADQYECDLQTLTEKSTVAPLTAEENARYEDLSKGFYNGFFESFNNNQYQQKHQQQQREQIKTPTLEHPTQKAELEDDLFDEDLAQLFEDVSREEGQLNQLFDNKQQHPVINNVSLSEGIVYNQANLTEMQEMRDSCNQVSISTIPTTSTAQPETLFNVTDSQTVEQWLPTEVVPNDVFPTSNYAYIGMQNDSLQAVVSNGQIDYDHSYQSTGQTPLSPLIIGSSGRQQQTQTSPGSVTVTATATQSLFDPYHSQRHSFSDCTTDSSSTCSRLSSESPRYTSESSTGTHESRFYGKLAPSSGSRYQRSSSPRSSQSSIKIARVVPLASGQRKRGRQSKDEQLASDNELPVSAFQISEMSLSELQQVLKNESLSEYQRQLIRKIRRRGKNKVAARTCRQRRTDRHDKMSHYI

[11] = target: Endoplasmic reticulum aminopeptidase 1 (Homo sapiens, UniProt Q9NZ08); assay: ERAP1 aminopeptidase inhibitors, dose response, biochemical, cherry-pick, set 2, plate reader (AID 743314)
H9c2 = assay: cells; assay type: functional, cell-based; settings: Rattus norvegicus, H9c2, Myocardium
[12] = target: T3, Disintegrin and metalloproteinase domain-containing protein 17 (Homo sapiens, UniProt P78536); assay: exosite inhibitors of ADAM17, dose response, biochemical (AID 743260)
T3 sequence (P78536 whole entry, the tested form may be a part): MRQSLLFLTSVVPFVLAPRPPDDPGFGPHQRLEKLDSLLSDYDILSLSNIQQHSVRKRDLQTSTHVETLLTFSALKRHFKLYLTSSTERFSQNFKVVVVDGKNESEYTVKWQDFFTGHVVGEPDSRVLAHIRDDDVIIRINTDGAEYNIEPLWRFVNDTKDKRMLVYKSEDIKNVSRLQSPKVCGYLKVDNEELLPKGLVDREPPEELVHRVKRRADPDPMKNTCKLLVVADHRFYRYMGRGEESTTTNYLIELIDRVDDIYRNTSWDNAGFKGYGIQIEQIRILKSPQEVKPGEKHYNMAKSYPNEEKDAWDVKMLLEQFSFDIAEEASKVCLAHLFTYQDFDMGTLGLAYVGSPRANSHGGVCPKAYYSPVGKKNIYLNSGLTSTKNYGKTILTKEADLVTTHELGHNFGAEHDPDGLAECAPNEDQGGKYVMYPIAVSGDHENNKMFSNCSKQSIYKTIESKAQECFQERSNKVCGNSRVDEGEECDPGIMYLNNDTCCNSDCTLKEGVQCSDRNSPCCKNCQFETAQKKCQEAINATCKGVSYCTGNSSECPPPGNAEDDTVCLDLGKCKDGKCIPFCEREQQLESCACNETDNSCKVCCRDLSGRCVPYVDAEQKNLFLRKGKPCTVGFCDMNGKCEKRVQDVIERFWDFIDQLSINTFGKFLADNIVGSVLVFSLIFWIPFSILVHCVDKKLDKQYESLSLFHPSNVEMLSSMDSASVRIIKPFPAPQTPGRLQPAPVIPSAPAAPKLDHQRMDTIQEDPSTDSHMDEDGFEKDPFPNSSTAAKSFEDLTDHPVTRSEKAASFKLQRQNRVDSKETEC

[13] = ADAM10 protease inhibitors, dose response, selectivity assay for ADAM17 exosite inhibitor project, biochemical, FRET peptide substrate, recombinant human ADAM10 (AID 743259);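 note: ADAM10 enzyme cleaving a FRET peptide substrate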
[14] = Luminescence-based cell-based high throughput dose response assay to identify activators of the DAF-12 from the parasite S. stercoralis (ssDAF-12).; assay type: functional
[15] = target: T1, Oxysterols receptor LXR-beta; assay: LXR agonists, Gal4 luciferase reporter, dose response, counter-screen for ssDAF-12 agonist project, cell-based, luminescence, HEK293, S. stercoralis campaign (AID 720737); assay type: functional; settings: read-out: IC50 (the source's name)
[16] = target: 1-phosphatidylinositol 4,5-bisphosphate phosphodiesterase beta-3 (Homo sapiens, UniProt Q01970); assay: Fluorescence-based biochemical high throughput dose response assay to identify inhibitors of phospholipase C isozymes (PLC-B3).
1-phosphatidylinositol 4,5-bisphosphate phosphodiesterase beta-3, sequence (Q01970 whole entry): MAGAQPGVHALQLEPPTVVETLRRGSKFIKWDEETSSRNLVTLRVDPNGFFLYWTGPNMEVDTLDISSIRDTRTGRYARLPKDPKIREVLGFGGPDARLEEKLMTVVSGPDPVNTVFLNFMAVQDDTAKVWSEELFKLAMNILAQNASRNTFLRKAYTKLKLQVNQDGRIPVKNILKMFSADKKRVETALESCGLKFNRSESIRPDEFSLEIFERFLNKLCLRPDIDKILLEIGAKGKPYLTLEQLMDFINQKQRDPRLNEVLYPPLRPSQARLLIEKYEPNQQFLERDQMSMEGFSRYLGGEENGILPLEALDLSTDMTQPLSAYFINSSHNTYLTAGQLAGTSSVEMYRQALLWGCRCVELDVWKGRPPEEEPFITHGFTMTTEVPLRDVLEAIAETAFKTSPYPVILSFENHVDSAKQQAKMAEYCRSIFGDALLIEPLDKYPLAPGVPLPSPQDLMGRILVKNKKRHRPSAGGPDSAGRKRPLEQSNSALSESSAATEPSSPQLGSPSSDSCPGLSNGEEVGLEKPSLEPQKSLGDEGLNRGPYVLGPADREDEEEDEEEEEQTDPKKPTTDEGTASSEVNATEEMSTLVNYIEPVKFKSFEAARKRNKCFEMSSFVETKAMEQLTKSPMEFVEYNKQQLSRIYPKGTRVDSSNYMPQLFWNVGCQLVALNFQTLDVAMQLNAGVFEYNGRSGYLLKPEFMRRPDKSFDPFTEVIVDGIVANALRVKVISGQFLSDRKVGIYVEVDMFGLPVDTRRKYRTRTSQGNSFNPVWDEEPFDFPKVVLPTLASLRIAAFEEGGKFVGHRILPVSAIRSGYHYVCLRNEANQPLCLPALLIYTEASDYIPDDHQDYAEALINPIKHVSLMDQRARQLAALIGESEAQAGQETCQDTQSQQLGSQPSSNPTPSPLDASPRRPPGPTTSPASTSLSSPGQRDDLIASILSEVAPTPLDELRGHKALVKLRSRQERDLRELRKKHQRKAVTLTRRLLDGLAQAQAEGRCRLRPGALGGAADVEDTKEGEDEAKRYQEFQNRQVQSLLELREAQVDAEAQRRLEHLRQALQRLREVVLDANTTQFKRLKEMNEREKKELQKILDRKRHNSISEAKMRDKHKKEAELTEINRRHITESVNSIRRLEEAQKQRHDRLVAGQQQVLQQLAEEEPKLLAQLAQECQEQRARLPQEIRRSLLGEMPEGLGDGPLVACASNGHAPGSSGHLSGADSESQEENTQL

[17] = target: 1-phosphatidylinositol 4,5-bisphosphate phosphodiesterase gamma-1 (Homo sapiens, UniProt P19174); assay: Counterscreen for inhibitors of phospholipase C isozymes (PLC-B3): Fluorescence-based biochemical high throughput dose response assay to identify inhibitors of phospholipase C isozymes (PLC-gamma1).
[18] = ADAM10 inhibitors, peptide cleavage, dose response, biochemical, QFRET (AID 743254);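 note: ADAM10 enzyme with the DM2 quenched FRET peptide as substrate; EDANS fluorescence gain as the protease cuts the substrate; inhibitor potency against ADAM10 proteolytic activity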
[19] = target: T3, Disintegrin and metalloproteinase domain-containing protein 17; assay: ADAM17 protease inhibitors, dose response, counter-screen for ADAM10 exosite inhibitor project, biochemical, quenched FRET substrate (AID 743253)
[20] = target: NAD-dependent protein deacylase sirtuin-5, mitochondrial (Homo sapiens, UniProt Q9NXA8); assay: SIRT5 desuccinylase inhibitors, dose response, biochemical, fluorescence imaging, cherry-pick, set 5 (AID 720591);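 note: desuccinylation of succinyl peptide AMC substrate read as fluorescence after trypsin release; potency of inhibitors that lower fluorescence and may act on trypsin instead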
NAD-dependent protein deacylase sirtuin-5, mitochondrial, sequence (Q9NXA8 whole entry): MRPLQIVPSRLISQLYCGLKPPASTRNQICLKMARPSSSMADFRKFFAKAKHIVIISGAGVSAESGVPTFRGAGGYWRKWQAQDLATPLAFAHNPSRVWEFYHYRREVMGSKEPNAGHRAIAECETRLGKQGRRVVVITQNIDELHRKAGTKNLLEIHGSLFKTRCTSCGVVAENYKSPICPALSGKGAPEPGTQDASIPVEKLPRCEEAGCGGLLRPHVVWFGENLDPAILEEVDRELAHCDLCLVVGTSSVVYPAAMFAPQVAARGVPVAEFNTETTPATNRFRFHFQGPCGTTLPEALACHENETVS

[21] = IGROV1 ovarian cancer cell cytotoxicity, dose response, PAX8 inhibitor project, plate reader, dry powder samples (AID 743043); assay type: functional, cell-based; settings: IGROV-1
[22] = A2780 ovarian cancer cell cytotoxicity, dose response, cytotoxicity control, plate reader, dry powder samples (AID 743046); assay type: functional, cell-based
[23] = NIH:OVCAR-3 ovarian cancer cell cytotoxicity, dose response, PAX8 inhibitor project, plate reader, dry powder samples (AID 743044); assay type: functional, cell-based
Paired box protein Pax-8 = Paired box protein Pax-8 (Homo sapiens, UniProt Q06710); assay: inhibitors of PAX8-driven TPO luciferase reporter, dose response, RMG-I cells, cherry-pick (AID 687027); assay type: functional, cell-based;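 note: luciferase reporter driven by Pax8 target thyroperoxidase promoter measured by SteadyGlo luminescence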
Paired box protein Pax-8, sequence (Q06710 whole entry): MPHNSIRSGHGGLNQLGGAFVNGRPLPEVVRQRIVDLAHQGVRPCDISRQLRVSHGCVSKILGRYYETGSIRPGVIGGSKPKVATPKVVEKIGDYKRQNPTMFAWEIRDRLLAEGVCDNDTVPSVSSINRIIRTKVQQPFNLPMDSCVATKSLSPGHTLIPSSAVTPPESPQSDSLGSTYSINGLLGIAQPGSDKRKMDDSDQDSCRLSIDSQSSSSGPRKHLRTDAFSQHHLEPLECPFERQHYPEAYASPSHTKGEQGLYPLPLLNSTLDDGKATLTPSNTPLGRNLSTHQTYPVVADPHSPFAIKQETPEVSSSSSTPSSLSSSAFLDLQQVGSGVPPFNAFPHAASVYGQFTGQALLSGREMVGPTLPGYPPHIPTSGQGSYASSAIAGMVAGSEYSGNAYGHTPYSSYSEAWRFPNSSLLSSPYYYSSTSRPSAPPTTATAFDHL

[24] = IOSE-T80 ovarian epithelial cell cytotoxicity, dose response, cytotoxicity control for PAX8 inhibitor project, plate reader, dry powder samples (AID 743045); assay type: functional, cell-based
[25] = cytotoxicity in OVCAR8 ovarian cancer cells, dose response, PAX8 project, cell-based, plate reader, dry powder samples (AID 743197); assay type: functional; settings: OVCAR-8
Caspase-9 = Caspase-9 (Homo sapiens, UniProt P55211); assay: caspase-9 enzyme inhibition, dose response, selectivity assay for caspase-6 inhibitor project, biochemical, fluorescence, plate reader, cherry-picked samples (AID 743293)
Caspase-9, sequence (P55211 1-315 limits assumed): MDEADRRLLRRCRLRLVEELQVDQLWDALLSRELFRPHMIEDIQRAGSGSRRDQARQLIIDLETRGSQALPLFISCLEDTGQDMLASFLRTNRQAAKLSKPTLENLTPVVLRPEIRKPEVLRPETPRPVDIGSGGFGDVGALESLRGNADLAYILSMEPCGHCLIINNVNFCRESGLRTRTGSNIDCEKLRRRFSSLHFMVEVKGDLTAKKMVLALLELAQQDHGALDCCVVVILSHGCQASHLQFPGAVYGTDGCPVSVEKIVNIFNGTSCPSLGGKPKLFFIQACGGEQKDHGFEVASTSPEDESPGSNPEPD
Caspase-9, sequence (P55211 331-416 limits assumed): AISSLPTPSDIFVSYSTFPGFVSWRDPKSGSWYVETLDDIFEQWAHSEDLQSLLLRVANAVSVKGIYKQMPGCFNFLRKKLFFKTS

Caspase-7 = target: T4, Caspase-7 (Homo sapiens, UniProt P55210); assay: human caspase-7 inhibitors, dose response, selectivity assay for caspase-6 inhibitor project, biochemical, DEVD-R110 fluorescence, cherry-pick (AID 743295)
T4 sequence (P55210 whole entry): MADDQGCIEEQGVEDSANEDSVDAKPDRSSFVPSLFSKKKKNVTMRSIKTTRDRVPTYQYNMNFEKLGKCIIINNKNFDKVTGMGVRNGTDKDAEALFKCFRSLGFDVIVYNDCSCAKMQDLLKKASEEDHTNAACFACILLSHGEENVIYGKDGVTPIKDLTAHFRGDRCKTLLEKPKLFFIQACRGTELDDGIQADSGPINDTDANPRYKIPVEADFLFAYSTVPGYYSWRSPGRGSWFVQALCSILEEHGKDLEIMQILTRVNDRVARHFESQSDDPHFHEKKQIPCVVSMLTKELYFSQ

Caspase-6 = target: T5, Caspase-6 (Homo sapiens, UniProt P55212); assay: human caspase-6 inhibitors, dose response, biochemical, VEID-R110 fluorescence, cherry-pick (AID 720632)
T5 sequence (P55212 whole entry): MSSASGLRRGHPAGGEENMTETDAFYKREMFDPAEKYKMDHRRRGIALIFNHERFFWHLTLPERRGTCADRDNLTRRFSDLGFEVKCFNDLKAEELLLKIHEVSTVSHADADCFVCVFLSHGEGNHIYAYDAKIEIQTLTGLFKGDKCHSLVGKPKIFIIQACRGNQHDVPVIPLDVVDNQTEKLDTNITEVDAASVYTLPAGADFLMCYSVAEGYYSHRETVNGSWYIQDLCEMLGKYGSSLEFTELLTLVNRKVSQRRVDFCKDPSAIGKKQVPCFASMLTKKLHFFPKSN

[26] = A375 melanoma cell viability loss, dose response, counter-screen for MITF inhibitor project, CellTiter-Glo luminescence, dry powder, set 4 (AID 624364); assay type: functional, cell-based; settings: A-375;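 note: A375 melanoma cells are MITF independent so this is a counter screen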
[27] = A375 melanoma cell cytotoxicity, dose response, counter-screen for MITF inhibitor project, CellTiter-Glo luminescence, dry powder, set 2 (AID 624489); assay type: functional, cell-based; settings: A-375;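 note: actives are compounds lowering A375 viability meaning general cytotoxicity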
[28] = TRPM1 promoter luciferase reporter signal decrease, dose response, MITF inhibitor project, cell-based, SK-MEL-5, dry powder, set 8 (AID 624430); assay type: functional
[29] = MITF Orthogonal Assay: SK-MEL-5 CTG Assay Measured in Cell-Based System Using Plate Reader - 2084-02_Inhibitor_Dose_DryPowder_Activity_Set7.; assay type: functional
[30] = MITF: Counter assay: A375 proliferation Measured in Cell-Based System Using Plate Reader - 2084-03_Inhibitor_Dose_DryPowder_Activity_Set8.; assay type: functional; settings: A-375
Fibrinogen beta chain [31] = target: T6, Fibrinogen beta chain (Homo sapiens, UniProt P02675); assay: Fluorescence polarization-based biochemical high throughput dose response assay to identify inhibitors that disrupt the binding of a cyclic peptide (Tn7) to the fibrin proteolytic product D-Dimer and fragment E complex [DD(E )].
T6 sequence (P02675 whole entry, the tested form may be a part): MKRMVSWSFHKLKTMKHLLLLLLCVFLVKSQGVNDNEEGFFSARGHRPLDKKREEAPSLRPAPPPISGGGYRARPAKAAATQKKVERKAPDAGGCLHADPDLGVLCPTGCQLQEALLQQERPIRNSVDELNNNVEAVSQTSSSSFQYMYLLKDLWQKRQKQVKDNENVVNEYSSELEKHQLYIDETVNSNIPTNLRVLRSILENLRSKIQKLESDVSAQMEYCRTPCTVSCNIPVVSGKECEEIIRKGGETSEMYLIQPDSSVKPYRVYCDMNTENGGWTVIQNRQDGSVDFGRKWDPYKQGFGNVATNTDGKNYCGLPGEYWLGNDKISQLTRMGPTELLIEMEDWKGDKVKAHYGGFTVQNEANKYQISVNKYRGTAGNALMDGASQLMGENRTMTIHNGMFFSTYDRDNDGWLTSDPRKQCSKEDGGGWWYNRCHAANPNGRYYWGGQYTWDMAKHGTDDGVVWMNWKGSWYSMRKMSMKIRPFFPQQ

Fibrinogen beta chain [32] = target: T6, Fibrinogen beta chain; assay: Fluorescence polarization-based biochemical high throughput dose response assay to identify inhibitors that disrupt the binding of a cyclic peptide (Tn6) to the fibrin proteolytic product D-Dimer and fragment E complex [DD(E )].
[33] = BHK-21 cell cytotoxicity, cytotoxicity control for flavivirus guanylyltransferase probe project, secondary screen (AID 624078); assay type: functional
Kallikrein-7 = Kallikrein-7 (Homo sapiens, UniProt P49862); assay: Fluorescence Intensity-based biochemical primary high throughput dose response assay to identify activators of kallikrein-7 (K7) zymogen.
Kallikrein-7, sequence (P49862 whole entry): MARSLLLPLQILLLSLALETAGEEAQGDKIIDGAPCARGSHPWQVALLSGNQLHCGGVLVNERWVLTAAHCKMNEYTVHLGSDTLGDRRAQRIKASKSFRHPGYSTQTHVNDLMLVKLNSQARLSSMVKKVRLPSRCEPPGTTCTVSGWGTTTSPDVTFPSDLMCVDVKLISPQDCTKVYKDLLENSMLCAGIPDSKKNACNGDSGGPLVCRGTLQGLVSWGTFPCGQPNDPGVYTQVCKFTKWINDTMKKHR

## CCCOc1ccccc1-n1sc2c(c1=S)-c1cc(OC)cc3c1N(C(=O)C3=O)C2(C)C
[1]
  AC50: 5.35 µM (active)
[2]
  CC50: 21.4 µM (active)
Nonstructural protein 1
  IC50: 9.35 µM (active)
[3]
  AC50: 19.4 µM (active)
[4]
  EC50: 19.9 µM (active)
[5]
  EC50: 22 µM (active)

## CCOc1ccc2nc(NCCN=C(S)NCCCN(C)C)c(C#N)cc2c1
Cells [6]
  AC50: > 52 µM (inactive)
Cells [7]
  AC50: > 32 µM (inactive)
Cells [8]
  AC50: > 52 µM (inactive)
[9]
  AC50: > 52 µM (inactive)

## Cc1cc2nn(-c3ccc(F)cc3)nc2cc1N
[10]
  EC50: > 67.5 µM (inactive)
Protein skinhead-1
  IC50: > 100 µM (inactive)

## CCCCc1cc(=O)oc2cc(O)ccc12
[11]
  AC50: 7.25 µM (active)
H9c2
  IC50: > 79 µM (inactive)

## NS(=O)(=O)c1ccc(NCc2cc(Cl)ccc2OCc2ccc(F)cc2)cc1
[12]
  IC50: > 69.5 µM (inactive)
[13]
  IC50: > 23.2 µM (inactive)

## C=CCc1ccc(OCCCCOc2ccc(C(=O)O)cc2)c(OC)c1
[14]
  IC50: > 67.5 µM (inactive)
[15]
  EC50: > 67.5 µM (inactive)

## Cc1cc(OCC(=O)OCC(=O)NCc2ccc3c(c2)OCO3)ccc1Cl
[16]
  IC50: > 123 µM (inactive)
[17]
  IC50: > 123 µM (inactive)

## CC(O)(c1ccc(F)c(F)c1)c1nc(-c2cc3ccccc3o2)cs1 (stereo unspecified)
[18]
  IC50: 10.5 µM (inactive)
[19]
  IC50: > 69.5 µM (inactive)

## O=C(O)c1ccc(S(=O)(=O)N(Cc2ccccc2)C2CCCCC2)cc1
[20]
  AC50: > 30 µM (inactive)

## CS(=O)(=O)Nc1ccc2c(c1)[C@@H]1C[C@@H](CC(=O)NCc3ccc(Oc4ccccc4)cc3)O[C@@H](CO)[C@@H]1O2
[21]
  AC50: 6.7 µM (active)
[22]
  AC50: 6.31 µM (active)
[23]
  AC50: 3.38 µM (active)
Paired box protein Pax-8
  AC50: 1.95 µM (active)
[24]
  AC50: 8.81 µM (active)
[25]
  AC50: 11.3 µM (active)

## O=C(C[C@@H]1C[C@H]2c3cc(NC(=O)NC4CCCCC4)ccc3O[C@H]2[C@H](CO)O1)NCc1ccccn1
Caspase-9
  AC50: 53.5 µM (active)
Caspase-7
  AC50: 29.7 µM (active)
Caspase-6
  AC50: 7.79 µM (active)

## O=C1C(NS(=O)(=O)c2ccc(Br)cc2)=C(N2CCOCC2)C(=O)c2ccccc21
[26]
  AC50: > 70 µM (inactive)
[27]
  AC50: > 70 µM (inactive)

## CN1CCN(C2=C(Nc3cccc(Br)c3)C(=O)c3ccccc3C2=O)CC1
[28]
  AC50: 4.79 µM (active)
[29]
  AC50: 12.3 µM (active)
[30]
  AC50: 39.3 µM (active)

## O=C(CSc1nnc(SCc2cccc3ccccc23)s1)Nc1ccc(S(=O)(=O)Nc2nccs2)cc1
Fibrinogen beta chain [31]
  IC50: > 83.3 µM (inactive)
Fibrinogen beta chain [32]
  IC50: 15.6 µM (inactive)

## O=S(=O)(Nc1cc(Sc2ccccc2)c(O)c2ccccc12)c1ccc(F)cc1
[33]
  CC50: 13.4 µM (active)

## COc1ccc(/C=N/NC(=O)c2cc3c(ccc4ccccc43)o2)cc1OC
Kallikrein-7
  EC50: > 23.2 µM (inactive)
